Values joined by “and” are separate entries in the source; they are usually repeats but may differ in a detail not shown here. Identical values can stand only once. Like-named read-outs stand apart in the source and are kept apart here.
Key:
[1] = target: NMDA receptor-associated ionic channel (PCP/TCP binding site); test: Displacement of TCP Binding (3H-TCP, membrane preparation of rat cortex)
Method: Phencyclidine (PCP), a known NMDA antagonist, binds to the NMDA receptor-associated ionic channel and blocks ionic transport (Garthwaite & Garthwaite, Neurosci. Lett. 83, 1987, 241-246).
The interaction between compounds of formula (I) and the PCP bond is studied in the following. In this test ^3 H-TCP, a PCP analogue, is used.
A membrane preparation of rat cortex is incubated with ^3 H-TCP which is an analogue of phencyclidine (PCP) (Quirion & Pert 1982, Eur. J. Pharmacol. 83:155). The interaction with the TCP binding is assessed for test compound no. 1 (1-amino-3,5-dimethyl adamantane) in a competitive experiment. […] The conclusion can be drawn that compound no. 1 binds to NMDA receptor channels at the same site as the NMDA antagonist PCP.

NMDA-induced mortality = test: Protection Against NMDA-Induced Mortality (mice); format: in vivo, mouse; conditions: 200 mg/kg NMDA i.p.
Method: It is well known that, subsequent to cerebral ischemia, glutamate and aspartate levels increase massively in the brain. These excitatory aminoacids overstimulate the NMDA-subtype of the glutamate receptor thus leading to delayed neuronal death. A similar pathophysiological situation is obtained when mice are administered intraperitoneally with 200 mg/kg NMDA. This high dose will eventually cause 100% mortality in the animals (Leander et al. 1984, Brain Res. 448; 115-120).

[2] = tested on: electrically induced convulsions; test: Anticonvulsive Effect (supermaximum electroshock test in mice); format: in vivo, mouse; conditions: for ED50 / Anticonvulsive action (score), Mean: i.p.; for ED50: electroshock 40 min after application, estimated according to Litchfield and Wilcoxon; for Anticonvulsive action (score): i.p., 4, 12, 36, 108 and 324 mg/kg, protected animals added over all dosages, maximum = 25, individual scores; for Anticonvulsive action (score), Mean: mean of scores, maximum = 25
Method: 4, 12, 36, 108 and 324 mg/kg of the test substance is administered to mice by the intraperitoneal route (5 animals per dose). The supermaximum electroshock test is applied forty (40) minutes after application of the substance to investigate the anti-convulsive potential of the substance. The protected animals are added up over all dosages (score; maximum=25 animals).

NMDA receptor channel = test: Blocking of NMDA Receptor Channels (patch-clamp, cultivated spinal marrow neurons); format: cell-based, mouse; conditions: 20 μM NMDA and 6 μM of adamantane derivative; current integrated 20 sec; means ± SEM
Method: In the following test it is shown that the compounds of formula (I) according to the invention are as effective as PCP in blocking the NMDA receptor channel.
In the patch-clamp experiment, the current flowing through NMDA-activated membrane channels of cultivated spinal marrow neurons (mouse) is measured (Hamill et al 1981, Pflugers Arch. 312: 85-100). After application of 20 μM NMDA, the current signal of the cell is integrated for 20 sec. and recorded as a control answer (Ac). During succeeding application of 20 μM NMDA and 6 μM of an adamantane derivative, the intensity of the substance effect can be determined as a relative change of the control answer (A/Ac -A=test answer).

[3] = tested on: neurons in the CA1-CA4 region of the hippocampus; test: Protection Against Cerebral Ischemia (carotid occlusion in rats, hippocampal histology); format: in vivo, rat; conditions: for damaged neurons, area CA1 / damaged neurons, area CA3 / damaged neurons, area CA4: single administration 1 h prior to ischemia, ± SEM
Method: Both carotid arteries are occluded in rats for 10 minutes. […] The ischemia is terminated by opening the carotids and reinfusion of the withdrawn blood. After seven days the brains of the test animals are histologically examined for cellular changes in the CA1-CA4 region of the hippocampus, and the percentage of destroyed neurons is determined.

[4] = tested on: MK-801 binding site of the NMDA receptor channel; conditions: as reported in the foregoing publication (Kornhuber et al. 1989); cited from earlier work
[5] = tested on: brain cells after cerebral ischemia; conditions: rats; Sauer et al. 1988; cited from earlier work
[6] = target: MK-801 binding site of the NMDA receptor channel; test: Displacement of [3H] MK-801 Binding in Human Brain Tissue (frontal cortex homogenates); conditions: [3H] MK-801 (3 nM), mean of triplicate experiments
Method: MK-801 binds to the ion channel associated with the NMDA receptor, as well as TCP does. This binding site is thought to mediate the neuroprotective effects of non-competitive NMDA-antagonists.
We have investigated whether the adamantane derivatives of the present invention are active at the MK-801 binding site. Tissue from frontal cortex was taken from patients at autopsy and homogenates were prepared. Inhibition of specific [^3 H] MK-801 binding (3 nM) by the test compounds was determined (see e.g. Kornhuber et al. 1989, Eur. J. Pharmacol. 166: 589-590).
wherein Ki is the inhibition constant and nM is nanomoles per liter. Mean values from triplicate experiments are given ± S.E.M.
The inhibition constant Ki is approximately equal to the concentration of the adamantane in nM required to displace 50% of the MK-801 specifically bound to the receptor.

[7] = Mus musculus, ip, 40 min, read-out: ED50

| Compound | Protected Animals (NMDA-induced mortality; 25 mg/kg) | Protected Animals (NMDA-induced mortality; 50 mg/kg) | ED50 [2, 7] | Anticonvulsive action (score) ([2]; 40 min) | Anticonvulsive action (score), Mean ([2]; 40 min) | 1-A/Ac (NMDA receptor channel) | Ki [6] | other results |
| --- | --- | --- | --- | --- | --- | --- | --- | --- |
| CC12CC3CC(C)(C1)CC(N)(C3)C2 [Compound no. 1, 1-amino-3,5-dimethyl adamantane] | 6/8 | 8/8 | 16 mg/kg | 18 and 16 and 15 | 16.3 | 0.66 ± 0.05 | – | IC50 ([1]; membrane preparation of rat cortex, competitive experiment): 89 nM; displacement of TCP from the bond (in words) ([1]; rat cortex membranes): very effective; Protected Animals (NMDA-induced mortality; 10 mg/kg): 3/8; damaged neurons, area CA1 ([3]; 5 mg/kg (n = 5)): 83.0 ± 2.2%; damaged neurons, area CA3 ([3]; 5 mg/kg (n = 5)): 7.3 ± 1.8%; damaged neurons, area CA4 ([3]; 5 mg/kg (n = 5)): 3.7 ± 1.7%; damaged neurons, area CA3 ([3]; 20 mg/kg (n = 6)): 2.7 ± 1.0%; damaged neurons, area CA4 ([3]; 20 mg/kg (n = 6)): 0.6 ± 0.3%; damaged neurons, area CA1 ([3]; 20 mg/kg (n = 6), **p < 0.01 (U test)): 53.1 ± 6.1%; reduction of post-ischemic neuronal brain damage in the CA1 region (in words) ([3]; pre-ischemic application of 20 mg/kg, rat hippocampus): statistically significant; physiological parameters (e.g. blood pressure, body temperature) ([3]; rats, during ischemia test): not affected by the treatment; potency compared with thirteen other clinically-used and centrally-acting drugs (in words) [4]: most potent compound |
| C[C@]12N[C@H](Cc3ccccc31)c1ccccc12 [MK-801, 5-methyl-10,11-dihydro-5H-dibenzo[a,d]cycloheptene-5,10-imine, reference compound] | – | – | < 1 mg/kg | 25 | 25.0 | 0.60 ± 0.05 | – | – |
| c1ccc(C2(N3CCCCC3)CCCCC2)cc1 [PCP, Phencyclidine, reference compound] | – | – | – | 19 | 19.0 | 0.50 ± 0.04 | – | ED50 [2]: 9 mg/kg; prevention of destruction of brain cells after cerebral ischemia (in words) [5]: prevent the destruction of brain cells after cerebral ischemia in rats |
| CCC12CC3CC(CC(N)(C3)C1)C2 [compound 2, 1-amino-3-ethyl adamantane] | – | – | 30 mg/kg | 15 and 14 and 12 | 13.7 | 0.44 ± 0.08 | – | – |
| CC(C)C12CC3CC(CC(N)(C3)C1)C2 [compound 3, 1-amino-3-isopropyl adamantane] | 4/8 | 6/8 | – | – | – | 0.58 ± 0.07 | 598 nM | – |
| CCC12CC3CC(N)(C1)CC(CC)(C3)C2 [compound 4, 1-amino-3,5-diethyl adamantane] | 5/8 | 7/8 | 24 mg/kg | 16 and 11 | 14.3 | 0.50 ± 0.11 | 189 nM | – |
| CNC12CC3CC(C)(CC(C)(C3)C1)C2 [compound 5, 1-N-methylamino-3,5-dimethyl adamantane] | 5/8 | – | 13 mg/kg | 17 | 17.0 | 0.56 ± 0.07 | 1610 nM | – |
| CCNC12CC3CC(C)(CC(C)(C3)C1)C2 [compound 6, 1-N-ethylamino-3,5-dimethyl adamantane] | – | – | – | – | – | 0.38 ± 0.05 | – | – |
| NC12CC3CC(C1)CC(C1CCCCC1)(C3)C2 [compound 7, 1-amino-3-cyclohexyl adamantane] | – | – | – | – | – | 0.25 ± 0.04 | – | – |
| CCC12CC3(C)CC(C)(CC(N)(C3)C1)C2 [compound 8, 1-amino-3,5-dimethyl-7-ethyl adamantane] | – | – | – | – | – | 0.50 ± 0.03 | – | – |

— patent US5061703A, “Adamantane derivatives in the prevention and treatment of cerebral ischemia” (priority 1989, dated 1991)
